Reference: US12173322B2, “Genome-edited induced pluripotent stem cells, and cells derived therefrom, and uses thereof” (priority 2020, dated 2024)
Where two headings read alike, the source gives them in different places.

Assays:
hKCNQ1 /mink = target: T1, hKCNQ1 /mink (Homo sapiens, UniProt P51787); test: Patch clamp electrophysiology (QPatch), hKCNQ1/mink; format: cell-based
T1 construct: Eurofins

hCav1.2 = target: T2, hCav1.2 (Homo sapiens, UniProt Q13936); test: Patch clamp electrophysiology (QPatch CiPA), hCav1.2; format: cell-based
T2 construct: Eurofins
T2 sequence (Q13936 whole entry): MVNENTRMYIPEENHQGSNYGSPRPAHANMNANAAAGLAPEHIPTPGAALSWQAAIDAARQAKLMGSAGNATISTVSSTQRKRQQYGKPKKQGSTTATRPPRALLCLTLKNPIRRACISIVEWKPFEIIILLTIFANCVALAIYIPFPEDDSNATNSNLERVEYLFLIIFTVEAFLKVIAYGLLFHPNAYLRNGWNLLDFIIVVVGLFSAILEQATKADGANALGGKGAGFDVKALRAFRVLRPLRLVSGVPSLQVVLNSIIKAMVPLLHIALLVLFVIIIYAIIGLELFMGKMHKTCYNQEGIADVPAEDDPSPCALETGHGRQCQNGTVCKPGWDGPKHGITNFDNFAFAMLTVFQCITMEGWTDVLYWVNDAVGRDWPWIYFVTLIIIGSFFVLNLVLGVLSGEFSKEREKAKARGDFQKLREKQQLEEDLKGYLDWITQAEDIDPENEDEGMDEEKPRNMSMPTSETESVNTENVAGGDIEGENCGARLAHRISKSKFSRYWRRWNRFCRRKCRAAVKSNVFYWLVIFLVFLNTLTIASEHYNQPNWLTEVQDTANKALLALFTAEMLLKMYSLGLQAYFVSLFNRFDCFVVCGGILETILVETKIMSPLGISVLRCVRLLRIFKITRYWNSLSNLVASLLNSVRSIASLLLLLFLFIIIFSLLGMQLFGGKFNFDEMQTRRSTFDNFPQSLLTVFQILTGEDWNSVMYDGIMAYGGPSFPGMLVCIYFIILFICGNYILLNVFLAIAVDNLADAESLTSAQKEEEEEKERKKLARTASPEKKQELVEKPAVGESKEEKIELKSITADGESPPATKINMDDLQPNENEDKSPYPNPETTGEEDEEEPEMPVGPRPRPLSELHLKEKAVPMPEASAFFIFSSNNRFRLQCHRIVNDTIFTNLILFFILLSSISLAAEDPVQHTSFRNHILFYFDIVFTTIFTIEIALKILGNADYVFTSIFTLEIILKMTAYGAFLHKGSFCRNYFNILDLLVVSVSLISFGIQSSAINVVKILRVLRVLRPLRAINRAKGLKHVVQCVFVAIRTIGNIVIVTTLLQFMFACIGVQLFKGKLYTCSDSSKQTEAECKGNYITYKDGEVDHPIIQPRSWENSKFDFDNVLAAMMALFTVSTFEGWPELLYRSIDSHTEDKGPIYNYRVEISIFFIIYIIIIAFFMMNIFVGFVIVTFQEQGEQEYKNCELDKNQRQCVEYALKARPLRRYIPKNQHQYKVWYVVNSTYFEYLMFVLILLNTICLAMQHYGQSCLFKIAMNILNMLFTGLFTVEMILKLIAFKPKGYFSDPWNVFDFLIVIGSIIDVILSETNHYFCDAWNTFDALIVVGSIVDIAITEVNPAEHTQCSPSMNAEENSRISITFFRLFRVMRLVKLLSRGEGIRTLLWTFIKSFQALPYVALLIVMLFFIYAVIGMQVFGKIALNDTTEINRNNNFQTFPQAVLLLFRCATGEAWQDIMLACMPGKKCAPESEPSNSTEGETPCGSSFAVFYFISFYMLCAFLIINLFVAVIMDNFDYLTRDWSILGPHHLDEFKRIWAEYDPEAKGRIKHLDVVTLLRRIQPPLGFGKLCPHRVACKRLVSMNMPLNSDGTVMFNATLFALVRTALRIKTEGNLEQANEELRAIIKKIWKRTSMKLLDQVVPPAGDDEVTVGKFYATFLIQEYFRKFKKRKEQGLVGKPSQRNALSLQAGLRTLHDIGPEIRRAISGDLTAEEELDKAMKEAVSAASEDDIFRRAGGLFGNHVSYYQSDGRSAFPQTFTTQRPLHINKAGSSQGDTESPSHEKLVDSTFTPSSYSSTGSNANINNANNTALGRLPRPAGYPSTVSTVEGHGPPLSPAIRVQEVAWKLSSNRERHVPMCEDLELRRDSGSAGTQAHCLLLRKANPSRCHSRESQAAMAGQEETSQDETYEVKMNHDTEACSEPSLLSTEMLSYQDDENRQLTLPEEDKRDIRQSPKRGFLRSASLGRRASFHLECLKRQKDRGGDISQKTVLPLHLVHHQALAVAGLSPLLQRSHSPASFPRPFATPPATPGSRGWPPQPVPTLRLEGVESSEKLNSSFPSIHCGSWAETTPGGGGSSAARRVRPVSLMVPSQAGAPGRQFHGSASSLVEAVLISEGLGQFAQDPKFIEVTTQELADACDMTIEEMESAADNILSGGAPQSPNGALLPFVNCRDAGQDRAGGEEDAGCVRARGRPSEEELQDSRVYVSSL
T2 sequence (Q08289 whole entry partner): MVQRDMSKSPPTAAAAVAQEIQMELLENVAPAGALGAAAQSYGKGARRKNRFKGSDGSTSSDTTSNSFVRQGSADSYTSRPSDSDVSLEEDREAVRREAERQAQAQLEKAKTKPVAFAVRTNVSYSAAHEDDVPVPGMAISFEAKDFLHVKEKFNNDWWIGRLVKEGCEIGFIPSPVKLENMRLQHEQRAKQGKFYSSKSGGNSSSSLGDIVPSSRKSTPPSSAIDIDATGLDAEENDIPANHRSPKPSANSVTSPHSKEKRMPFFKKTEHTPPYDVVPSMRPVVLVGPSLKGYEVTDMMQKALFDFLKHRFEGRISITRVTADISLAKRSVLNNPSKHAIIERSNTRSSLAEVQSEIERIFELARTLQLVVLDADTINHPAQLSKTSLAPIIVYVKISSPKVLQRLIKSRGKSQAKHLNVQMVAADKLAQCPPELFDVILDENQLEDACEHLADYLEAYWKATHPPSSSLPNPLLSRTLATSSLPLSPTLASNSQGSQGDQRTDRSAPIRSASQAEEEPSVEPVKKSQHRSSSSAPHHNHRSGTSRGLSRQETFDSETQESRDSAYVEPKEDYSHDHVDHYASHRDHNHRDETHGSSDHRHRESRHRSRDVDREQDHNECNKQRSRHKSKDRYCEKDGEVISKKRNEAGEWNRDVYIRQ
T2 sequence (P54289 25-956 partner limits assumed): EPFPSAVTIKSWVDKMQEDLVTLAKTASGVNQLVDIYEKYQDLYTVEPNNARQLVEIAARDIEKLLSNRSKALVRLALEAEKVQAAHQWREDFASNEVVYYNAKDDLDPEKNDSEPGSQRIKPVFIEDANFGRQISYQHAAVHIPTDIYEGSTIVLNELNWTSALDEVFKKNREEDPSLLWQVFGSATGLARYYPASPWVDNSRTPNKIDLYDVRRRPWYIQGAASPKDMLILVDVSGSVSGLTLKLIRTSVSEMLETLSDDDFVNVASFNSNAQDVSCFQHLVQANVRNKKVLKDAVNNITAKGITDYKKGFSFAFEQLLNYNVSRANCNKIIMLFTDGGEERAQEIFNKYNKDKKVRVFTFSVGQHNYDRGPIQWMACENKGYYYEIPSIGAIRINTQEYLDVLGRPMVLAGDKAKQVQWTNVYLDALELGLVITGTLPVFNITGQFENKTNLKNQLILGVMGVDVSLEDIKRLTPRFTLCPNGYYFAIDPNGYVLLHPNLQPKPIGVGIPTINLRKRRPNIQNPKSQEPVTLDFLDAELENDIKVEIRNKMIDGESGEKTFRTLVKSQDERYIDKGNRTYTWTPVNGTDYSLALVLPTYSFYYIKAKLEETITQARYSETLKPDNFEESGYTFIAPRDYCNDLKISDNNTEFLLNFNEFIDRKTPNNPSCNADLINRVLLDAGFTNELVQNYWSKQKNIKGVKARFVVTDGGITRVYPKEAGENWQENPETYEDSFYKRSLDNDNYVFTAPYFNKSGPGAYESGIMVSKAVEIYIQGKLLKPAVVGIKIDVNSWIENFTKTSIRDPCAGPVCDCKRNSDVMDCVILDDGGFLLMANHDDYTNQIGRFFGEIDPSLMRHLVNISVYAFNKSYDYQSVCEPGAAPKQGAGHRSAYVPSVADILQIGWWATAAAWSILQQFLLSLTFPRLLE
T2 sequence (P54289 957-1103 partner limits assumed): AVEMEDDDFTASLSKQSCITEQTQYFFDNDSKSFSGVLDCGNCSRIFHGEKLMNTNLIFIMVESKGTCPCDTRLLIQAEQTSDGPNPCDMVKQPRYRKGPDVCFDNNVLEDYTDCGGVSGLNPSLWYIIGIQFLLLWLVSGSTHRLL

T1 sequence (P51787 whole entry): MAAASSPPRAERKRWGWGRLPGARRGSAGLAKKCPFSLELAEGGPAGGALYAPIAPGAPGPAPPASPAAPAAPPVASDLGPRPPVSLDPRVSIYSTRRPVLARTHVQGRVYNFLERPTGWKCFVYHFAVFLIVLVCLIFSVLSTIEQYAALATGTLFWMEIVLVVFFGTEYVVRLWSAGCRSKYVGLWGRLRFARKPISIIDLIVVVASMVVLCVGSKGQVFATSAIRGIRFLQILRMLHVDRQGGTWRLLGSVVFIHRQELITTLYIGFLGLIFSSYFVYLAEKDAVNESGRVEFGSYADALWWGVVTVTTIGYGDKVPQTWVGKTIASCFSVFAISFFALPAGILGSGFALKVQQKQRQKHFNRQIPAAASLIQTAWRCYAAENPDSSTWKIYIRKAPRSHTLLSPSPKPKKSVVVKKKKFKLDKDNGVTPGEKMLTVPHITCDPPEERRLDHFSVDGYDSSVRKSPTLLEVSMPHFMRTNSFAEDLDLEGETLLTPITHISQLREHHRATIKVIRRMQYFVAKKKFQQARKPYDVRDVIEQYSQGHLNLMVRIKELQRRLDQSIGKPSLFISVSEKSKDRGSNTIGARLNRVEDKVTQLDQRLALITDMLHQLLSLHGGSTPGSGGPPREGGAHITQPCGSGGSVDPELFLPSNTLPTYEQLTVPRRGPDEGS

With `CCS(=O)(=O)N(C)[C@H]1c2cc(C#N)ccc2OC(C)(C)[C@@H]1O` (racemic) [Chromanol 293B] the “% inhibition mean” value (hKCNQ1 /mink; 0.3 μM) was 4.24%, the “% inhibition n1” value (hKCNQ1 /mink; 0.3 μM) was 1.35% and the “% inhibition n2” value (hKCNQ1 /mink; 0.3 μM) was 7.13%. The “% inhibition mean” value (hKCNQ1 /mink; 1 µM) was 12.25%, the “% inhibition n1” value (hKCNQ1 /mink; 1 µM) was 9.45% and the “% inhibition n2” value (hKCNQ1 /mink; 1 µM) was 15.04%. The “% inhibition mean” value (hKCNQ1 /mink; 3 μM) was 22.85%, the “% inhibition n1” value (hKCNQ1 /mink; 3 μM) was 21.34% and the “% inhibition n2” value (hKCNQ1 /mink; 3 μM) was 24.36%. For the same molecule, the “% inhibition mean” value (hKCNQ1 /mink; 10 µM) was 40.28%, the “% inhibition n1” value (hKCNQ1 /mink; 10 µM) was 39.37% and the “% inhibition n2” value (hKCNQ1 /mink; 10 µM) was 41.20%. The “% inhibition mean” value (hKCNQ1 /mink; 30 μM) was 73.92%, the “% inhibition n1” value (hKCNQ1 /mink; 30 μM) was 74.46% and the “% inhibition n2” value (hKCNQ1 /mink; 30 μM) was 73.39%. For the same molecule, the “% inhibition mean” value (hKCNQ1 /mink; 100 µM) was 95.80%, the “% inhibition n1” value (hKCNQ1 /mink; 100 µM) was 96.45% and the “% inhibition n2” value (hKCNQ1 /mink; 100 µM) was 95.16%. The IC50 (hKCNQ1 /mink; read-out: Estimated IC50) was 11.5 µM.

In the case of `COC(=O)C1=C(C)NC(C)=C(C(=O)OC)C1c1ccccc1[N+](=O)[O-]` [Nifedipine], the inhibition at 0.001 µM (hCav1.2; read-out: % inhibition mean) is reported as 15.1%, the inhibition at 0.01 µM (hCav1.2; read-out: % inhibition mean) is reported as 34.8% and the inhibition at 0.1 µM (hCav1.2; read-out: % inhibition mean) is reported as 55.7%. The inhibition at 1 µM (hCav1.2; read-out: % inhibition mean) was 61%, the inhibition at 10 µM (hCav1.2; read-out: % inhibition mean) was 83.8% and the inhibition at 100 µM (hCav1.2; read-out: % inhibition mean) was 94.8%. For the same molecule, the inhibition at 0.001 µM (hCav1.2; read-out: % inhibition n1) was 21.6%, the inhibition at 0.01 µM (hCav1.2; read-out: % inhibition n1) was 38.2% and the inhibition at 0.1 µM (hCav1.2; read-out: % inhibition n1) was 53.1%. For the same molecule, the inhibition at 1 µM (hCav1.2; read-out: % inhibition n1) was 56.8%, the inhibition at 10 µM (hCav1.2; read-out: % inhibition n1) was 81.4% and the inhibition at 100 µM (hCav1.2; read-out: % inhibition n1) was 95.2%. It also gave an inhibition at 0.001 µM (hCav1.2; read-out: % inhibition n2) of 8.54%, an inhibition at 0.01 µM (hCav1.2; read-out: % inhibition n2) of 31.5% and an inhibition at 0.1 µM (hCav1.2; read-out: % inhibition n2) of 58.2%. The inhibition at 1 µM (hCav1.2; read-out: % inhibition n2) was 65.2%, the inhibition at 10 µM (hCav1.2; read-out: % inhibition n2) was 86.1% and the inhibition at 100 µM (hCav1.2; read-out: % inhibition n2) was 94.5%.
